Literature values, collected in PMC9851200, “Multiparameter phenotypic screening for endogenous TFEB and TFE3 translocation identifies novel chemical series modulating lysosome function” (Autophagy, 2022).

Legend:
Parameters in all cases: method as in original PKIS2 published data
[1] = molecular target: kinases (KINOMEscan panel) (Homo sapiens, UniProt Q8N5S9); conditions: CAMKK1; Published KINOMEscan; ref original PKIS2 published data; cited from earlier work
[2] = molecular target: kinases (KINOMEscan panel) (Homo sapiens, UniProt P42336); conditions: kinase PIK3CA; Published KINOMEscan; ref original PKIS2 published data; cited from earlier work
[3] = molecular target: kinases (KINOMEscan panel) (Homo sapiens, UniProt O75116); conditions: kinase ROCK2; Published KINOMEscan; ref original PKIS2 published data; cited from earlier work
[4] = molecular target: T1, kinases (KINOMEscan panel) (Homo sapiens, UniProt P29322); conditions: kinase EPHA8; Published KINOMEscan; ref original PKIS2 published data; cited from earlier work
T1 sequence (P29322 28-1005): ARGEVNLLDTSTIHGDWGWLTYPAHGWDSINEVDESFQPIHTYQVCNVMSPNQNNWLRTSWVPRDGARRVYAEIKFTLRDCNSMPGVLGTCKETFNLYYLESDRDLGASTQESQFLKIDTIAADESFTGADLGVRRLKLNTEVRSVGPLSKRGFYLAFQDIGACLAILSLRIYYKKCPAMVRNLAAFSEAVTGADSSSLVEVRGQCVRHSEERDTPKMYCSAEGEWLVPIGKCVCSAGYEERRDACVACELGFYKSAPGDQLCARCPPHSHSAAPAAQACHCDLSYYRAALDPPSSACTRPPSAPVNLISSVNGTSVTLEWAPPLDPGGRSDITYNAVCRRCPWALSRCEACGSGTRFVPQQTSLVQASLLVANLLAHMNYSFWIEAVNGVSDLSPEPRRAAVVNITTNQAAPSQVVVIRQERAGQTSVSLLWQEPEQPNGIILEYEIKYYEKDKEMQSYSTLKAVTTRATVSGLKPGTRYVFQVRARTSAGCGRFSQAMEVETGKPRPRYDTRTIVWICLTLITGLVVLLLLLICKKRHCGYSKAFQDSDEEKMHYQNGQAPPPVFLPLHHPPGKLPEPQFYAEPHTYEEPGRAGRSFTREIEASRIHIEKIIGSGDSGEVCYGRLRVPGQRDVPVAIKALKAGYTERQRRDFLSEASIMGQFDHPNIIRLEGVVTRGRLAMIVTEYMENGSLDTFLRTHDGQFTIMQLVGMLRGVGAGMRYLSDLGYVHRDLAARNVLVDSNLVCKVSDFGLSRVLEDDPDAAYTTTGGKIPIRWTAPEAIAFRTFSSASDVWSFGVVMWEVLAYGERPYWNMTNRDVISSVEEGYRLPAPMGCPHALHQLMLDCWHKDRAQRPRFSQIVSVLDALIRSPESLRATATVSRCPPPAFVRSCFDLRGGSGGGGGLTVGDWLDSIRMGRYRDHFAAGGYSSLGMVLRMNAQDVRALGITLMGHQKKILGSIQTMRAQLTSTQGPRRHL

[5] = molecular target: T2, kinases (KINOMEscan panel) (Homo sapiens, UniProt Q8TF76); conditions: HASPIN; Published KINOMEscan; ref original PKIS2 published data; cited from earlier work
T2 sequence (Q8TF76 1-798): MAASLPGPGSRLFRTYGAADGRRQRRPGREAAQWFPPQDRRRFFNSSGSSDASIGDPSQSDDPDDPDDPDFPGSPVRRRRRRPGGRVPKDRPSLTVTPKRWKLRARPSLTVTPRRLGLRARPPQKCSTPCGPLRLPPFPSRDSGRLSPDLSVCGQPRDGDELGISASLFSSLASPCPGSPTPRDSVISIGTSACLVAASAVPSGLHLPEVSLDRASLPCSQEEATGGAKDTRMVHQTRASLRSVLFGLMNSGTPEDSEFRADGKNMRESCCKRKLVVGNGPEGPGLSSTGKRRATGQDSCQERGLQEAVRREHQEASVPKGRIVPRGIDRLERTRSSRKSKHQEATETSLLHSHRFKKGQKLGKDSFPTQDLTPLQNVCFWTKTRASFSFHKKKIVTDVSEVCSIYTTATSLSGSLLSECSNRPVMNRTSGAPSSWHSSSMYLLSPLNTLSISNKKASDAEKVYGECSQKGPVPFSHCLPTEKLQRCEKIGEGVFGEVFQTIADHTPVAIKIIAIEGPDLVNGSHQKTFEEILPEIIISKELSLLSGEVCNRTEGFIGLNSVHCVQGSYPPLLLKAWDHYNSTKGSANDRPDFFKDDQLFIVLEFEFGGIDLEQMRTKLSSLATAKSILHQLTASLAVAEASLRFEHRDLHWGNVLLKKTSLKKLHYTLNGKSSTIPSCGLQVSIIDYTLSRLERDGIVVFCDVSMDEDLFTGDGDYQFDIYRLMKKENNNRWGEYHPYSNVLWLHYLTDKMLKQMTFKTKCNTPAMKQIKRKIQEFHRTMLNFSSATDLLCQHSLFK

[6] = molecular target: kinases (KINOMEscan panel) (Homo sapiens, UniProt P54756); conditions: kinase EPHA5; Published KINOMEscan; ref original PKIS2 published data; cited from earlier work
Chain of kinases (KINOMEscan panel) (Homo sapiens, UniProt P54756) (P54756 25-1037): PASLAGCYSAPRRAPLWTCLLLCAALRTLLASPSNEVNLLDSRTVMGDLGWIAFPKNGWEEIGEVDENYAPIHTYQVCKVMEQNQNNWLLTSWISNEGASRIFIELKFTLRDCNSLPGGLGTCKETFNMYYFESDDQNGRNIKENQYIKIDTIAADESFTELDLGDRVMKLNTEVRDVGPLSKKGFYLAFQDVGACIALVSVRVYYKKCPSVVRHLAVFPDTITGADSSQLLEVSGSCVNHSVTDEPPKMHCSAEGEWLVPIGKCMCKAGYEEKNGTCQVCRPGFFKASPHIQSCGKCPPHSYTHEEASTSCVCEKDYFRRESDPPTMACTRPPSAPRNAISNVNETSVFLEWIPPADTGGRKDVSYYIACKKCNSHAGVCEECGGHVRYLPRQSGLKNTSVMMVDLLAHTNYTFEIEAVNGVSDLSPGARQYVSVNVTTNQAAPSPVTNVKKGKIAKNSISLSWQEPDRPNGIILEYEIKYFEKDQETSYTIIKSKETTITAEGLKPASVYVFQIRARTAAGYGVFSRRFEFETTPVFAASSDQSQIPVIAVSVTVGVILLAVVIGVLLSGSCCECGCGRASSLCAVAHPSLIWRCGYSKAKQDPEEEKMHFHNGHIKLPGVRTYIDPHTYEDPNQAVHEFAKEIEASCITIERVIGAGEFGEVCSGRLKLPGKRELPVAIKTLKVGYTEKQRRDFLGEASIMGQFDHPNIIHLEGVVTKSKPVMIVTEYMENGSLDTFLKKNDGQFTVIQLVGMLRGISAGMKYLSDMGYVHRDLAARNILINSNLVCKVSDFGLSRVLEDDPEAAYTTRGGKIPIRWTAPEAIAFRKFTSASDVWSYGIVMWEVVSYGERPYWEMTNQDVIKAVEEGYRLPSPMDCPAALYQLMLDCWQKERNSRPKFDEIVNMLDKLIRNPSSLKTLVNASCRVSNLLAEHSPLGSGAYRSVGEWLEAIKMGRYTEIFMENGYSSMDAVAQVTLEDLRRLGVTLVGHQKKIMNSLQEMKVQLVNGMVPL

Chain of kinases (KINOMEscan panel) (Homo sapiens, UniProt P42336) (P42336 whole entry): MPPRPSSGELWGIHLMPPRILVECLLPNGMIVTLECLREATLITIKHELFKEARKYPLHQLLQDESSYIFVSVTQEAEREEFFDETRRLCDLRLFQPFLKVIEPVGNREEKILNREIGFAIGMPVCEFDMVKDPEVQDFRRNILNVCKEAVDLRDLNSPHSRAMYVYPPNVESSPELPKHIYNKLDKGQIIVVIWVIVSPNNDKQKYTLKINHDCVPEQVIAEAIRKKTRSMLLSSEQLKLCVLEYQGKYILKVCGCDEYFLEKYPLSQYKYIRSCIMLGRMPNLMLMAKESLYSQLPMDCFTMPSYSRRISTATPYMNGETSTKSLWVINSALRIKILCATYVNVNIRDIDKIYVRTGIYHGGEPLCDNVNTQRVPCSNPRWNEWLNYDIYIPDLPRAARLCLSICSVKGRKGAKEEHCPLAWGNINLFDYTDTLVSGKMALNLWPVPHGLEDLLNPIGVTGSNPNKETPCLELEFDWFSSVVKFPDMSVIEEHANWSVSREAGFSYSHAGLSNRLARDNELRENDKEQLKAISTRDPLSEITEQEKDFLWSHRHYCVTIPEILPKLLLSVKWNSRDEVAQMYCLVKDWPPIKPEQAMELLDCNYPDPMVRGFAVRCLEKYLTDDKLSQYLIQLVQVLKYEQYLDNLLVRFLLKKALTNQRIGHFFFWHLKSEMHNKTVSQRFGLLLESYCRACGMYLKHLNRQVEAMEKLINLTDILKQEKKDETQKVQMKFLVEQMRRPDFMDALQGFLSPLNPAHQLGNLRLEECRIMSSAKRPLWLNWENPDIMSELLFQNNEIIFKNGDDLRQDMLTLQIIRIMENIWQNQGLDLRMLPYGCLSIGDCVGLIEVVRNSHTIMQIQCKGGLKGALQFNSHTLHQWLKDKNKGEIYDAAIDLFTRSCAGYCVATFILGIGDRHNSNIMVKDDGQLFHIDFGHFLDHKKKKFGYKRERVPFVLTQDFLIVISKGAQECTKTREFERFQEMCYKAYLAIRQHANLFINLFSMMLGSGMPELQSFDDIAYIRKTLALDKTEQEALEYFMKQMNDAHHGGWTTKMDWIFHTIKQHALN
Chain of kinases (KINOMEscan panel) (Homo sapiens, UniProt Q8N5S9) (Q8N5S9 whole entry): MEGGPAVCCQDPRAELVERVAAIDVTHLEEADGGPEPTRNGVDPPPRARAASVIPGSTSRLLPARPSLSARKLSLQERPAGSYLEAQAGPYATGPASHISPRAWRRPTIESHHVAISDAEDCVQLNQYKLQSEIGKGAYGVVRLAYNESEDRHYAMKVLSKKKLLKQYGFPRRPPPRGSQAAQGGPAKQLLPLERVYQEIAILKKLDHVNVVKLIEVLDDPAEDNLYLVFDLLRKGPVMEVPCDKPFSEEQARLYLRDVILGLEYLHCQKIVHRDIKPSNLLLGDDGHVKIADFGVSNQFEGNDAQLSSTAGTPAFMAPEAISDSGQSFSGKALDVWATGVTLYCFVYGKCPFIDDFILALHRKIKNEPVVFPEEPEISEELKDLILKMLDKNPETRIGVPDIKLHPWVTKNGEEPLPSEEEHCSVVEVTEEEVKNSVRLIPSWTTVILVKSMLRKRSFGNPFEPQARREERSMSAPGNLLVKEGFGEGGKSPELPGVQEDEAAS
Chain of kinases (KINOMEscan panel) (Homo sapiens, UniProt O75116) (O75116 whole entry): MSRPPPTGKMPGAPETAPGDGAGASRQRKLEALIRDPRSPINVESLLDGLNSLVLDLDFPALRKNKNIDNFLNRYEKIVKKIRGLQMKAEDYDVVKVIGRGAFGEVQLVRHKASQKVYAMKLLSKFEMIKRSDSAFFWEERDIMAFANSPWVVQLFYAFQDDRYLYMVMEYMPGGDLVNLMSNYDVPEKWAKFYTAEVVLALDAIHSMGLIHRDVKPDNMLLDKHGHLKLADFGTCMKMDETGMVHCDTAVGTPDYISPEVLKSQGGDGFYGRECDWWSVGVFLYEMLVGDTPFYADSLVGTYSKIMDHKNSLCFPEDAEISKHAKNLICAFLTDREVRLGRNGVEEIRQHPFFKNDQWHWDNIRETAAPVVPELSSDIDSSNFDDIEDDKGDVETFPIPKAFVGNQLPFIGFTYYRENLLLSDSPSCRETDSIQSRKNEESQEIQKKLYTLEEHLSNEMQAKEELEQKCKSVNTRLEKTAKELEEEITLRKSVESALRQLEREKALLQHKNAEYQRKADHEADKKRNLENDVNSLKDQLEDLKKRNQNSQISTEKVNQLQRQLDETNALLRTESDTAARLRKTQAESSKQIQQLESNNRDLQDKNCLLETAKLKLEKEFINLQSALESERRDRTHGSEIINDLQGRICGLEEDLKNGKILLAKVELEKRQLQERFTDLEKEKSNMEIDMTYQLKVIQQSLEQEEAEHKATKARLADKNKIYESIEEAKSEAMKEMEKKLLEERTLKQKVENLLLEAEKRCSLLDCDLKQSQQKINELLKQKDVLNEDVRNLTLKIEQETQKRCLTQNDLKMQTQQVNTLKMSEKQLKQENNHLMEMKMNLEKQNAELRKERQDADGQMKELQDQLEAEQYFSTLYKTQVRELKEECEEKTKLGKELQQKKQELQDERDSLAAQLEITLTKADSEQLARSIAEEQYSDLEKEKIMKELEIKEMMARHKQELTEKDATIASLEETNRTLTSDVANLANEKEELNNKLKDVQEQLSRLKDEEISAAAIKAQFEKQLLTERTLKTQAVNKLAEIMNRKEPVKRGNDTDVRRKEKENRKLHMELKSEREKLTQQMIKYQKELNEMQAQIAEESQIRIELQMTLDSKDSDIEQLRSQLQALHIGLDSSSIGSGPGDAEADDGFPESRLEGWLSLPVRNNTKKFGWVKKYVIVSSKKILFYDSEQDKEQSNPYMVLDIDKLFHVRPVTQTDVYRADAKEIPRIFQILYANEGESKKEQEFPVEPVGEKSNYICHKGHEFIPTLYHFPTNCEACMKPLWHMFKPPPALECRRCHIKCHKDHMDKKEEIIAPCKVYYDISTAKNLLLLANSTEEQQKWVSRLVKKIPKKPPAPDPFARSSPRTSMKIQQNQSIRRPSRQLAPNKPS

Cc1cccc(-c2nc(Nc3ccncc3)c3ccccc3n2)n1 [NK215]
KINOMEscan CAMKK1 [1]: 24 | KINOMEscan PIK3CA [2]: 0 | KINOMEscan ROCK2 [3]: 0 | KINOMEscan EPHA8 [4]: 7 | KINOMEscan HASPIN [5]: 26 | KINOMEscan EPHA5 [6]: 0
